What is called pEC50 is the EC50 on a negative log10 scale, so that one unit is a factor of ten.

The results in this text go back to US8815909B2, “Diaminocyclohexane compounds and uses thereof” (Bristol-Myers Squibb Company, priority 2011, dated 2014).

pEC50: −log10 of the molar value. Like-named read-outs stand apart in the source and are kept apart here.

This assay addresses T1, human Y4 receptor (Homo sapiens, UniProt P50391).
T1 construct: expressed in transfected cells
Put plainly: NPY4 cAMP HTRF Agonist Assay (inhibitory cAMP assay, Gi activation by Y4 agonism). The class given is cell-based. The gist of the method: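 Y4 agonism read as lowered forskolin-stimulated cAMP (HTRF, 1 h detection at room temperature). Stable human Y4 CHO clone, 5000 cells/well, incubated 30 min at room temperature with compounds plus forskolin and IBMX in PBS.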
On the technique in general: Time-resolved FRET reads energy transfer from a long-lived donor to a nearby acceptor.

Where [1] appears, read: human Y4 receptor, cAMP, read-out: hY4 CAMP EC50.

T1 sequence (P50391 whole entry): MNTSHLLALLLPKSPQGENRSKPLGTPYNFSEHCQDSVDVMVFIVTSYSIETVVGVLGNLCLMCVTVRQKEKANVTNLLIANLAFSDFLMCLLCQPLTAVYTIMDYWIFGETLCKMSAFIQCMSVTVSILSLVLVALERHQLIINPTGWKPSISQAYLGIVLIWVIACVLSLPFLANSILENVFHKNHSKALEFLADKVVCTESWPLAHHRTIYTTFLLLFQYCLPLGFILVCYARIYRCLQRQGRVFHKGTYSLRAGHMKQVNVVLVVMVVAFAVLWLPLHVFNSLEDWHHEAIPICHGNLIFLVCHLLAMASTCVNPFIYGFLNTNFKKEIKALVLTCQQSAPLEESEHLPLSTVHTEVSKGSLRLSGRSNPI

As to `O=[N+]([O-])c1ccc(N2CCC[C@H](N[C@@H]3CCCC[C@H]3Nc3ncc(-c4cccc(OC(F)(F)F)c4)o3)C2)cc1` [Example 22, (1R,2R)—N1-((S)-1-(4-Nitrophenyl)piperidin-3-yl)-N2-(5-(3-(trifluoromethoxy)phenyl)oxazol-2-yl)cyclohexane-1,2-diamine], the pEC50 (human Y4 stable CHO clonal cells, forskolin + IBMX, read-out: NPY4 cAMP HTRF Agonist Assay EC50) was 7.37.

Consider `C[C@]1(N[C@@H]2CCCC[C@H]2Nc2cc(-c3cccc(C(N)=O)c3)ccn2)CCCN(c2ccc(-c3noc(C4CC4)n3)nc2)C1` [Example 450], for which the pEC50 under setting [1] is 8.00.

For `N#Cc1cnc(N2C[C@@H]3C[C@H](N[C@@H]4CCCC[C@H]4Nc4ncc(-c5cccc(C(N)=O)c5)o4)[C@H]2C3)nc1` [Example 433], under setting [1], the pEC50 is 6.84.

As to `NCc1cccc(-c2ccnc(N[C@@H]3CCCC[C@H]3N[C@H]3CCCN(c4ccc(C(F)(F)F)cc4)C3)c2)c1` [Example 127], the pEC50 (second TABLE 1, R2 is Phenyl-CF3, read-out: hY4 CAMP EC50) was 7.10.

In the case of `NC(=O)c1cccc(-c2cnc(N[C@@H]3CCCC[C@H]3N[C@H]3C[C@@H]4C[C@H]3N(c3ccc(C(F)(F)F)nc3)C4)o2)c1` [Example 328], the pEC50 (TABLE 5, R2 is Pyridinyl-CF3, read-out: hY4 CAMP EC50) was 7.51.
